Results published in ChEMBL document CHEMBL1909046, “DrugMatrix in vitro pharmacology data”.

What was measured:
Estrogen receptor = target: T1, Estrogen receptor (Homo sapiens, UniProt P03372); details: sf9
T1 sequence (P03372 whole entry): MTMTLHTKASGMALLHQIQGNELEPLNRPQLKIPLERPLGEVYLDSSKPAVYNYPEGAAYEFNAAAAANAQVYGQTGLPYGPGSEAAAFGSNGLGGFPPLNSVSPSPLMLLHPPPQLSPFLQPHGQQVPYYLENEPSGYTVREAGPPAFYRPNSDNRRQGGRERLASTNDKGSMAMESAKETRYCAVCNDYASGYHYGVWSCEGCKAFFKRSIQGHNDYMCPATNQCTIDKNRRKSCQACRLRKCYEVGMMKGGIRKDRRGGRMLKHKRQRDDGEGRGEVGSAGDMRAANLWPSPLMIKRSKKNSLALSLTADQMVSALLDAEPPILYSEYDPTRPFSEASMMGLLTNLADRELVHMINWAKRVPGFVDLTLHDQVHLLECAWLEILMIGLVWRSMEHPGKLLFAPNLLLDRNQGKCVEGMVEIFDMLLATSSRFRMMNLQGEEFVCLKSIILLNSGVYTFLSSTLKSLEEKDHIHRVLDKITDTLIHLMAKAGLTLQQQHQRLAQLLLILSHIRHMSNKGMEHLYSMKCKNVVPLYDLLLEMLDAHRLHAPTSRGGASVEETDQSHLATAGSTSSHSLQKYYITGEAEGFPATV

Glucocorticoid receptor = target: T2, Glucocorticoid receptor (Homo sapiens, UniProt P04150); details: hela s3
T2 sequence (P04150 whole entry): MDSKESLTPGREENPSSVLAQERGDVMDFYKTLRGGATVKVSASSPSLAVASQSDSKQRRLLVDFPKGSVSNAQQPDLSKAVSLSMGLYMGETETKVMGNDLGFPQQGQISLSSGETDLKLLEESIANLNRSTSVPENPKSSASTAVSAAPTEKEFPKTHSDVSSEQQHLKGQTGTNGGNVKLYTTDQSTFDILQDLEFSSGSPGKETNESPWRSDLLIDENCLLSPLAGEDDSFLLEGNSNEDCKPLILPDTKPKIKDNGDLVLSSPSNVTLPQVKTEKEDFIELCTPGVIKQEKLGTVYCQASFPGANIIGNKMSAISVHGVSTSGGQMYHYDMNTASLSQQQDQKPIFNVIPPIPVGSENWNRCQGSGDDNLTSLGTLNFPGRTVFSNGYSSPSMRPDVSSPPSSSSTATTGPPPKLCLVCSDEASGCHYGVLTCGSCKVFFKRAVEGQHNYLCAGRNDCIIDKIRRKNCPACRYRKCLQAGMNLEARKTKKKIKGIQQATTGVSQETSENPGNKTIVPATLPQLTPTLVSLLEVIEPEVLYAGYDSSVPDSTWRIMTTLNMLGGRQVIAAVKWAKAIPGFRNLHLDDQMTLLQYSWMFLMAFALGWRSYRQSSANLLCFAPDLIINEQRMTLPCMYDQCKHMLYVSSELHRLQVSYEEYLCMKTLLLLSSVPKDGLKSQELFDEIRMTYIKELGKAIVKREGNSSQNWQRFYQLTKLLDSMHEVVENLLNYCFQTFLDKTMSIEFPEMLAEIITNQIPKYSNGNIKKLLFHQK

Cytochrome P450 3A4 = Cytochrome P450 3A4 (Homo sapiens, UniProt P08684); details: bti-tn-5b1-4
Note: in other assays of this panel Not Active means under 50% inhibition at 10 µM.

Chain of Cytochrome P450 3A4 (P08684 whole entry): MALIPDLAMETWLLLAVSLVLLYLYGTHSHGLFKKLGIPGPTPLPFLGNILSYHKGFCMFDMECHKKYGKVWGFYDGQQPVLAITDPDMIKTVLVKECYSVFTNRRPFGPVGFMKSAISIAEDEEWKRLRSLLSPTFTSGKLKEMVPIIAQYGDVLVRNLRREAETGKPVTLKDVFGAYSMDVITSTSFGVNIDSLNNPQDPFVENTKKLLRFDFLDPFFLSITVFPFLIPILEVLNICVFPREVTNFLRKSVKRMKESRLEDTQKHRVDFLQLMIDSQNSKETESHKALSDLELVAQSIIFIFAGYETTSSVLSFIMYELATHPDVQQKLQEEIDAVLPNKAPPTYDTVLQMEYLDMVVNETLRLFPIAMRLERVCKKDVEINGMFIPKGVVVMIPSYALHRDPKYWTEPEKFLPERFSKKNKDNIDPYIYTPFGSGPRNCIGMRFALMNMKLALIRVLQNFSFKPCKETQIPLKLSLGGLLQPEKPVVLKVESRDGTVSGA

CCOC(=O)[C@H](CCc1ccccc1)N[C@@H](C)C(=O)N1[C@H](C(=O)O)C[C@@H]2CCC[C@@H]21
Not Active: IC50 (Estrogen receptor) | IC50 (Glucocorticoid receptor)

CC1(C)[C@H]2CC[C@]1(C)C(=O)C2 [(-)-CAMPHOR]
Not Active: IC50 (Estrogen receptor) | IC50 (Cytochrome P450 3A4) | Ki (Cytochrome P450 3A4) | IC50 (Glucocorticoid receptor)

CC(C)(C)NCC(O)c1ccc(O)c(CO)c1 (stereo unspecified) [ALBUTEROL]
Not Active: IC50 (Estrogen receptor) | IC50 (Cytochrome P450 3A4) | Ki (Cytochrome P450 3A4) | IC50 (Glucocorticoid receptor)

COc1ccc(CCN2CCC(Nc3nc4ccccc4n3Cc3ccc(F)cc3)CC2)cc1 [ASTEMIZOLE]
Not Active: IC50 (Cytochrome P450 3A4) | Ki (Cytochrome P450 3A4) | IC50 (Glucocorticoid receptor)

CN(C)CCCN1c2ccccc2CCc2ccc(Cl)cc21 [CLOMIPRAMINE]
Not Active: IC50 (Cytochrome P450 3A4) | Ki (Cytochrome P450 3A4) | IC50 (Glucocorticoid receptor)

O=C(CCCN1CCC(O)(c2ccc(Cl)cc2)CC1)c1ccc(F)cc1 [HALOPERIDOL]
Not Active: IC50 (Cytochrome P450 3A4) | Ki (Cytochrome P450 3A4) | IC50 (Glucocorticoid receptor)

Oc1c(I)cc(I)c2cccnc12 [IODOQUINOL]
Not Active: IC50 (Estrogen receptor) | IC50 (Cytochrome P450 3A4) | Ki (Cytochrome P450 3A4) | IC50 (Glucocorticoid receptor)

NNC(=O)c1ccncc1 [ISONIAZID]
Not Active: IC50 (Estrogen receptor) | IC50 (Cytochrome P450 3A4) | Ki (Cytochrome P450 3A4) | IC50 (Glucocorticoid receptor)

CC1=C(/C=C/C(C)=C/C=C/C(C)=C\C(=O)O)C(C)(C)CCC1 [ISOTRETINOIN]
Not Active: IC50 (Estrogen receptor) | IC50 (Cytochrome P450 3A4) | Ki (Cytochrome P450 3A4) | IC50 (Glucocorticoid receptor)

CO[C@@H]1[C@@H](O[C@@H]2O[C@H](C)[C@@H](O[C@H]3C[C@@](C)(O)[C@@H](OC(=O)CC(C)C)[C@H](C)O3)[C@H](N(C)C)[C@H]2O)[C@@H](CC=O)C[C@@H](C)[C@@H](O)/C=C/C=C/C[C@@H](C)OC(=O)C[C@H]1O [KITASAMYCIN]
Not Active: IC50 (Estrogen receptor) | IC50 (Cytochrome P450 3A4) | Ki (Cytochrome P450 3A4) | IC50 (Glucocorticoid receptor)

CCC[C@@H]1C[C@@H](C(=O)N[C@@H]([C@H]2O[C@H](SC)[C@H](O)[C@@H](O)[C@H]2O)[C@@H](C)O)N(C)C1 [LINCOMYCIN]
Not Active: IC50 (Estrogen receptor) | IC50 (Cytochrome P450 3A4) | Ki (Cytochrome P450 3A4) | IC50 (Glucocorticoid receptor)

NCCCC[C@H](N[C@@H](CCc1ccccc1)C(=O)O)C(=O)N1CCC[C@H]1C(=O)O [LISINOPRIL ANHYDROUS]
Not Active: IC50 (Glucocorticoid receptor)

COS(C)(=O)=O [METHANESULFONIC ACID METHYL ESTER]
Not Active: IC50 (Estrogen receptor) | IC50 (Cytochrome P450 3A4) | Ki (Cytochrome P450 3A4) | IC50 (Glucocorticoid receptor)

COC(=O)c1ccc(O)cc1 [METHYLPARABEN]
Not Active: IC50 (Estrogen receptor) | IC50 (Cytochrome P450 3A4) | Ki (Cytochrome P450 3A4) | IC50 (Glucocorticoid receptor)

C[C@](N)(Cc1ccc(O)cc1)C(=O)O [METYROSINE]
Not Active: IC50 (Estrogen receptor) | IC50 (Cytochrome P450 3A4) | Ki (Cytochrome P450 3A4) | IC50 (Glucocorticoid receptor)

Clc1ccc(C(c2ccccc2Cl)C(Cl)Cl)cc1 (stereo unspecified) [MITOTANE]
Not Active: IC50 (Cytochrome P450 3A4) | Ki (Cytochrome P450 3A4) | IC50 (Glucocorticoid receptor)

COC(=O)C1=C(C)NC(C)=C(C(=O)OC)C1c1ccccc1[N+](=O)[O-] [NIFEDIPINE]
Not Active: IC50 (Estrogen receptor) | IC50 (Glucocorticoid receptor)

CC(=O)[C@H]1CC[C@H]2[C@@H]3CCC4=CC(=O)CC[C@]4(C)[C@H]3CC[C@]12C [PROGESTERONE]
Not Active: IC50 (Estrogen receptor) | IC50 (Cytochrome P450 3A4) | Ki (Cytochrome P450 3A4)

NC(=O)c1ncn([C@@H]2O[C@H](CO)[C@@H](O)[C@H]2O)n1 [RIBAVIRIN]
Not Active: IC50 (Cytochrome P450 3A4) | Ki (Cytochrome P450 3A4) | IC50 (Glucocorticoid receptor)

O=[N+]([O-])c1cc([As](=O)(O)O)ccc1O [ROXARSONE]
Not Active: IC50 (Estrogen receptor) | Ki (Estrogen receptor) | IC50 (Cytochrome P450 3A4) | Ki (Cytochrome P450 3A4) | IC50 (Glucocorticoid receptor) | Ki (Glucocorticoid receptor)

CC[C@H]1OC(=O)[C@H](C)[C@@H](O[C@H]2C[C@@](C)(OC)[C@@H](O)[C@H](C)O2)[C@H](C)[C@@H](O[C@@H]2O[C@H](C)C[C@H](N(C)C)[C@H]2O)[C@](C)(O)C[C@@H](C)/C(=N\OCOCCOC)[C@H](C)[C@@H](O)[C@]1(C)O [ROXITHROMYCIN]
Not Active: IC50 (Estrogen receptor) | IC50 (Cytochrome P450 3A4) | Ki (Cytochrome P450 3A4) | IC50 (Glucocorticoid receptor)

NC(=O)c1ccccc1O [SALICYLAMIDE]
Not Active: IC50 (Estrogen receptor) | IC50 (Cytochrome P450 3A4) | Ki (Cytochrome P450 3A4) | IC50 (Glucocorticoid receptor)

Cc1ncc([N+](=O)[O-])n1CC(C)O (stereo unspecified) [SECNIDAZOLE]
Not Active: IC50 (Estrogen receptor) | IC50 (Cytochrome P450 3A4) | Ki (Cytochrome P450 3A4) | IC50 (Glucocorticoid receptor)

CN[C@@H]1[C@@H](O)[C@@H](O[C@@H]2[C@@H](O)[C@H](O[C@H]3OC(CN)=CC[C@H]3N)[C@@H](N)C[C@H]2N)OC[C@]1(C)O [SISOMICIN]
Not Active: IC50 (Glucocorticoid receptor)

Cc1cc(NS(=O)(=O)c2ccc(N)cc2)no1 [SULFAMETHOXAZOLE]
Not Active: IC50 (Glucocorticoid receptor)

Nc1ccc(S(N)(=O)=O)cc1 [SULFANILAMIDE]
Not Active: IC50 (Glucocorticoid receptor)

Nc1ccc(S(=O)(=O)Nc2ccnn2-c2ccccc2)cc1 [SULFAPHENAZOLE]
Not Active: IC50 (Estrogen receptor) | IC50 (Cytochrome P450 3A4) | Ki (Cytochrome P450 3A4) | IC50 (Glucocorticoid receptor)

CC(C)(C)NCC(O)c1cc(O)cc(O)c1 (stereo unspecified) [TERBUTALINE]
Not Active: IC50 (Cytochrome P450 3A4) | Ki (Cytochrome P450 3A4)

Cc1ccc(C(=O)C(C)CN2CCCCC2)cc1 (stereo unspecified) [TOLPERISONE]
Not Active: IC50 (Estrogen receptor) | IC50 (Cytochrome P450 3A4) | Ki (Cytochrome P450 3A4)

CN1[C@@H]2CC[C@H]1C[C@@H](OC(=O)c1c[nH]c3ccccc13)C2 [TROPISETRON]
Not Active: IC50 (Cytochrome P450 3A4) | Ki (Cytochrome P450 3A4)

COc1cc(C(=O)NC2CCCNC2)cc(OC)c1OC (stereo unspecified) [TROXIPIDE]
Not Active: IC50 (Cytochrome P450 3A4) | Ki (Cytochrome P450 3A4) | IC50 (Glucocorticoid receptor)

COc1ccc(C(CN(C)C)C2(O)CCCCC2)cc1 (stereo unspecified) [VENLAFAXINE]
Not Active: IC50 (Cytochrome P450 3A4) | Ki (Cytochrome P450 3A4)

COC(=O)[C@@H]1[C@H]2C[C@H]3c4[nH]c5ccccc5c4CCN3C[C@@H]2CC[C@@H]1O [YOHIMBINE]
Not Active: IC50 (Estrogen receptor)
